Assay results published in patent US20240207292A1, “BORONIC ACID COMPOUNDS, COMPOSITIONS AND METHODS” (Trustees of Tufts College, priority 2021, published 2024).
Read-outs that look alike come from different tables or passages of the source. Square brackets hold non-standard residues; d marks the D form. Peptide text beside a SMILES is read from it. * marks the point of attachment. X1 = O=C1CN2CCN3CCN(CC(=O)*)CCN(CC2)CC(=O)O[CH2][Lu]([CH2]CO1)[CH2]COC(=O)C3; boroPro = OB(O)[C@@H]1CCCN1*

Key:
[1] = Degradation in aqueous solution of pH about 3 during HPLC purification and lyophilization; details: during HPLC purification and subsequent lyophilization
[2] = target: recombinant human dipeptidyl peptidase IV (DPPIV) (Homo sapiens (Human), UniProt P27487); assay: In vitro assay dipeptidyl peptidase IV IC50 (Example 21); type: biochemical
Sequence of recombinant human dipeptidyl peptidase IV (DPPIV) (P27487 whole entry): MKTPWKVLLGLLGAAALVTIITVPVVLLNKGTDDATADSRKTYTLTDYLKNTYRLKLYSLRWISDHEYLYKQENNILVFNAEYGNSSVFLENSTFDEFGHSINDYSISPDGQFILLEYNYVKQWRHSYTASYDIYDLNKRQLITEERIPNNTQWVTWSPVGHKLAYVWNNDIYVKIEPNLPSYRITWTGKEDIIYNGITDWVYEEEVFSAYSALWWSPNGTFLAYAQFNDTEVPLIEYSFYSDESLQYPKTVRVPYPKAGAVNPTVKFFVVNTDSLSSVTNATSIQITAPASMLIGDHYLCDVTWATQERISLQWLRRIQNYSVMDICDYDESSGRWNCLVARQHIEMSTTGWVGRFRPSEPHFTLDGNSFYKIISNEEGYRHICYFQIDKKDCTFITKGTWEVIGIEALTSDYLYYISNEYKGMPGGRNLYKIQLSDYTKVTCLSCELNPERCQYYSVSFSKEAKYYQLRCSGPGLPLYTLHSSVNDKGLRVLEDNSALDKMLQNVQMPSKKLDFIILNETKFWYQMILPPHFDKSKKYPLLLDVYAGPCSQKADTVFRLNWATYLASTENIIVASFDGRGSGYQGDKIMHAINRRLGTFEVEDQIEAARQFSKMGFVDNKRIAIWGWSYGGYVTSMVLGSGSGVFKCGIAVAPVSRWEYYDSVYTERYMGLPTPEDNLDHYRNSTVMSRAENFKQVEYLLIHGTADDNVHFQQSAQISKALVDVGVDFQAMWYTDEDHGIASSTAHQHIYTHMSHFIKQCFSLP
Description: The purpose of this assay is to determine the IC50 of various inhibitors against recombinant human dipeptidyl peptidase IV (DPPIV), fibroblast activation protein (FAP) or prolyl oligopeptidase (PREP).
The assays are conducted in the following steps: • 1 Dissolve the compound in DMSO to a final concentration of 100 mM. From this, prepare a 1 mM stock at pH 7.5 in 50 mM Tris, 140 mM NaCl Buffer (FAP)/pH 7.5 in 25 mM Tris, 250 mM NaCl Buffer/[…]. • 2. Serial dilute (1:10) the 1 mM compound stocks prepared previously into the appropriate assay buffer (FAP: 50 mM Tris, 140 mM NaCl, pH 7.5/PREP: 25 mM Tris, 0.25 M NaCl, pH 7.5/DPPIV: 25 mM Tris, pH 8.0) to one row of a 96-well plate. • 3. […] Dilute the enzymes into their appropriate assay buffers. The final enzyme concentrations should be 0.1, 1.2, and 0.6 nM for DPPIV, FAP and PREP respectively. Add 180 μL to each well needed in columns 2-10. Column 1(A,B,C) should be prepared with 200 μl of appropriate assay buffer as control. Column 1(D,E,F,G,H) should be prepared with 20 μl of appropriate assay buffer and 180 ul enzyme as no inhibitor control. • 5. Add 20 μL of the compound of interest from the dilution plate prepared in step 2 to columns 2-10 of the assay plate where appropriate. Each sample should be tested in triplicate. Allow this to incubate for 10 minutes at room temperature, shaking the plate for the first two minutes. • 6. Add 10 μL of 20× substrate prepared in step 3 to each well and allow this to incubate for 15 minutes at room temperature, shaking the plate for the first two minutes. • 7. Read the fluorescence at λex: 380, λem: 460. (DPcore=[dAla|dSer|Gly]-[boroPro|Pro-nitrile], XXaa=alpha-amino acid)

[3] = physchem; details: water
[4] = target: recombinant human fibroblast activation protein (FAP) (Homo sapiens (Human), UniProt Q12884); assay: In vitro assay fibroblast activation protein IC50 (Example 21); type: biochemical
Sequence of recombinant human fibroblast activation protein (FAP) (Q12884 whole entry): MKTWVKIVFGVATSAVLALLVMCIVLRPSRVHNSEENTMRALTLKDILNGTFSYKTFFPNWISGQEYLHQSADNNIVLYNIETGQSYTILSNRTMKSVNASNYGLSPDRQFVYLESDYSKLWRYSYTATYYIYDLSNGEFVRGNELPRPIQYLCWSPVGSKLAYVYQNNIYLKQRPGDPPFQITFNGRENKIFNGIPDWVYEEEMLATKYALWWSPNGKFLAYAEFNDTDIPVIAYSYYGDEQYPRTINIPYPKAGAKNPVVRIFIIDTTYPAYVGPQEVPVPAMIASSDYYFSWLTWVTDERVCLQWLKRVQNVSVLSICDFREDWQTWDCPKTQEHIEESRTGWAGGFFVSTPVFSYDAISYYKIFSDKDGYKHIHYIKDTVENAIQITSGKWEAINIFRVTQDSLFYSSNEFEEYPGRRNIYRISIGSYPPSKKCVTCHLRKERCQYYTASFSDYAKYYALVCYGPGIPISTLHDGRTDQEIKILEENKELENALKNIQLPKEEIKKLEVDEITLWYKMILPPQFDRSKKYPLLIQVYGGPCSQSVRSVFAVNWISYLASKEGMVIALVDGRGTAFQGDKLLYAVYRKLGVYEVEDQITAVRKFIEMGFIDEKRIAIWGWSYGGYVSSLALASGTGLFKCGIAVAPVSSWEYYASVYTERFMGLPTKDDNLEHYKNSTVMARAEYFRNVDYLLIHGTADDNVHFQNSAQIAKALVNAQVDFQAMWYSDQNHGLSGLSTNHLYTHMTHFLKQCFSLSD

[5] = target: recombinant human prolyl oligopeptidase (PREP) (Homo sapiens (Human), UniProt P48147); assay: In vitro assay prolyl oligopeptidase IC50 (Example 21); type: biochemical
Sequence of recombinant human prolyl oligopeptidase (PREP) (P48147 whole entry): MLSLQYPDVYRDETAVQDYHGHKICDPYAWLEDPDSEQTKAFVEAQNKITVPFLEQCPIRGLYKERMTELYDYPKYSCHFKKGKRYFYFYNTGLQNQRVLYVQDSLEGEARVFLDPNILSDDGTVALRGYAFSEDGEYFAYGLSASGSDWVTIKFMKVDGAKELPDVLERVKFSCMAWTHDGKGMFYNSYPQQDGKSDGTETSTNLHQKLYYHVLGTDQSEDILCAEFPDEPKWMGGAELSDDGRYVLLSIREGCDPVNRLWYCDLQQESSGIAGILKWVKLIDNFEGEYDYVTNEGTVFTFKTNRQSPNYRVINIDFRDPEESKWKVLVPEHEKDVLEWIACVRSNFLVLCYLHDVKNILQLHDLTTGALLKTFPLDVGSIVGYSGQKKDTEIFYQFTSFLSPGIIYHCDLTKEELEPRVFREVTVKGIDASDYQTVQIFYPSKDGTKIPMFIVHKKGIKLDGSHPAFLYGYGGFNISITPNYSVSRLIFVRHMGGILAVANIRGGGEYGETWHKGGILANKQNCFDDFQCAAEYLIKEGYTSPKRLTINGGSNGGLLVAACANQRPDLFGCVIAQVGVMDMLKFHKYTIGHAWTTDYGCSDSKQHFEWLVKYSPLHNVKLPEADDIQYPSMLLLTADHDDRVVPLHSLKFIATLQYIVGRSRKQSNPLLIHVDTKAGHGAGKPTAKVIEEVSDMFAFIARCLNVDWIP

[6] = test system: HEK-mFAP tumor xenografts; assay: Efficacy and survival study, single injection of [^177Lu]-6522; type: in vivo, Fox Chase SCID mice
Description: The aim of the study was to assess the therapeutic efficacy of a single injection of [^177Lu]-6522 by evaluation tumor growth delay and median survival.
[^177Lu]-6522 is provided as described in Example 24 above. The following treatment compositions were prepared: • 1. Vehicle (selected formulation, 100 μL) • 2. Precursor (6522 compound) (80 μL) • 3. [.^77Lu]-6522 15 MBq (80 μL) • 4. [.^77Lu]-6522 30 MBq (80 μL) • 5. [.^77Lu]-6522 60 MBq (80 μL)
A total of 30 HEK-mFAP tumor-bearing mice were used for the study. […]
Mouse health checks were performed throughout the study on a weekly basis including body weight measurements. Tumor growth was monitored weekly with caliper measurements (tumor volume=length×width^2×0.5). […]. Mice were housed 5 to a cage with ad libitum access to food and water in 20° C. ambient temperature, 40%-50% humidity, and 12-hour light/12-hour dark cycle.
The mice were randomized into 5 groups, n=6 mice per group. The treatment compositions (1 through 5 above) were injected IV through the tail vein using a catheter (mounted with a 30 Ga needle). Injected doses were determined using a well counter (Capintec calibration). Tumor growth was monitored weekly with caliper measurements, and the mice were followed for survival.

[7] = test system: HEK-mFAP tumor xenografts
[8] = Solubility in water after lyophilization
[9] = Stability of bortezomib with excipients in water, propyleneglycol (PG) or butylene glycol (BG) at 1 mg/mL, 50° C.; type: physicochemical; details: with N-Acetyl-L-methionine
Description: In Examples 1-3 below, Tables 1, 2 and 3 summarize the effectiveness of sulfur compounds in stabilizing bortezomib such as against oxidation and decomposition reactions. For each of the following Examples 1-3, the following procedures were used: Samples preparation: 100 mg of the API (active pharmaceutical ingredient) was suspended into 100 mL of water or other ratioed solvents, mixed well by using a vortex mixer and sonicator (with gentle warm if necessary) to make a 1 mg/mL of solution A. 10 mg of each excipient was weighed into avial, and 1 mL of solution A was added, mixed well to give the test solution B (10:1 of excipient/API). Took 100 μL of solution B and diluted into 1 mL with solution A to give the test solution C (1:1 of excipient/API). Took 100 μL of solution C and diluted into 1 mL with solution A to give the test solution D (0.1:1 of excipient/API). For solid powderform of Bortezomib with the excipients, method in US 2005/0282742 A1 was adopted. […]
Aqueous formulations of bortezomib together with a number of sulfur-containing compounds in varying weight ratios were evaluated for stability over time based on purity of Bortezomib in water, propyleneglycol (PG) or butylene glycol (BG) at 1 mg/mL, 50° C.

What does the source list for `C[C@@H](NC(=O)[C@H]1CC[C@H](CNC(=O)CN2CCN(CC(=O)O)CCN(CC(=O)O)CCN(CC(=O)O)CC2)CC1)C(=O)N1CCC[C@H]1B(O)O` [compound 6952]?
degradation in aqueous solution [1]: did not observe any sign of degradation; IC50 ([2]; Gly-Pro-AMC, 0.1 nM enzyme): > 100 µM; solubility [3]: > 50 mg/mL; IC50 ([4]; Z-Gly-Pro-AMC, 1.2 nM enzyme): 0.0047 µM; IC50 ([5]; Z-Gly-Pro-AMC, 0.6 nM enzyme): 4.6 µM

Which results are given for `CC(C)[C@H](NC(=O)CNC(=O)CNC(=O)CN1CCN2CCN3CCN(CC1)CC(=O)O[CH2][Lu]([CH2]COC(=O)C2)[CH2]COC(=O)C3)C(=O)N[C@H](C)C(=O)N1CCC[C@H]1B(O)O` [[^177Lu]-6522] (X1-GGV[dA]-boroPro)?
survival benefit ([6]; 15 and 30 MBq groups): did not translate in a survival benefit; tumor growth delay ([6]; 15 and 30 MBq groups): tumor growth delay was observed; survival benefit compared to the vehicle or precursor group ([6]; 60 MBq single IV injection): statically significant survival benefit; kidneys uptake ([7]; 4 h p.i., IV): 2.35 ± 0.51 % ID/g; tumor uptake ([7]; 4 h p.i., IV, HEK-mFAP tumor-bearing mice): 33.04 ± 5.29 % ID/g; Blood uptake, Mean (% ID/g) ([7]; 4 h p.i., IV): 0.3063 % ID/g; Blood uptake, Mean (% ID/g) ([7]; 24 h p.i., IV): 0.0085 % ID/g; Blood uptake, Mean (% ID/g) ([7]; 48 h p.i., IV): 0.0029 % ID/g; Blood uptake, Mean (% ID/g) ([7]; 168 h p.i., IV): 0.0015 % ID/g; Bone uptake, Mean (% ID/g) ([7]; 4 h p.i., IV): 1.8037 % ID/g; Bone uptake, Mean (% ID/g) ([7]; 24 h p.i., IV): 0.2658 % ID/g; Bone uptake, Mean (% ID/g) ([7]; 48 h p.i., IV): 0.4106 % ID/g; Bone uptake, Mean (% ID/g) ([7]; 168 h p.i., IV): 0.3959 % ID/g; Brain uptake, Mean (% ID/g) ([7]; 4 h p.i., IV): 0.0281 % ID/g; Brain uptake, Mean (% ID/g) ([7]; 24 h p.i., IV): 0.0036 % ID/g; Brain uptake, Mean (% ID/g) ([7]; 48 h p.i., IV): 0.0033 % ID/g; Brain uptake, Mean (% ID/g) ([7]; 168 h p.i., IV): 0.0020 % ID/g; Heart uptake, Mean (% ID/g) ([7]; 4 h p.i., IV): 0.1528 % ID/g; Heart uptake, Mean (% ID/g) ([7]; 24 h p.i., IV): 0.0332 % ID/g; Heart uptake, Mean (% ID/g) ([7]; 48 h p.i., IV): 0.0311 % ID/g; Heart uptake, Mean (% ID/g) ([7]; 168 h p.i., IV): 0.0256 % ID/g; Kidneys uptake, Mean (% ID/g) ([7]; 4 h p.i., IV): 2.3525 % ID/g; Kidneys uptake, Mean (% ID/g) ([7]; 24 h p.i., IV): 0.9585 % ID/g; Kidneys uptake, Mean (% ID/g) ([7]; 48 h p.i., IV): 0.5318 % ID/g; Kidneys uptake, Mean (% ID/g) ([7]; 168 h p.i., IV): 0.1670 % ID/g; Liver uptake, Mean (% ID/g) ([7]; 4 h p.i., IV): 0.3774 % ID/g; Liver uptake, Mean (% ID/g) ([7]; 24 h p.i., IV): 0.1585 % ID/g; Liver uptake, Mean (% ID/g) ([7]; 48 h p.i., IV): 0.1237 % ID/g; Liver uptake, Mean (% ID/g) ([7]; 168 h p.i., IV): 0.0725 % ID/g; Lung uptake, Mean (% ID/g) ([7]; 4 h p.i., IV): 0.3331 % ID/g; Lung uptake, Mean (% ID/g) ([7]; 24 h p.i., IV): 0.0306 % ID/g; Lung uptake, Mean (% ID/g) ([7]; 48 h p.i., IV): 0.0312 % ID/g; Lung uptake, Mean (% ID/g) ([7]; 168 h p.i., IV): 0.0257 % ID/g; Muscle uptake, Mean (% ID/g) ([7]; 4 h p.i., IV): 0.4649 % ID/g; Muscle uptake, Mean (% ID/g) ([7]; 24 h p.i., IV): 0.0315 % ID/g; Muscle uptake, Mean (% ID/g) ([7]; 48 h p.i., IV): 0.0518 % ID/g; Muscle uptake, Mean (% ID/g) ([7]; 168 h p.i., IV): 0.0604 % ID/g; Pancreas uptake, Mean (% ID/g) ([7]; 4 h p.i., IV): 0.2167 % ID/g; Pancreas uptake, Mean (% ID/g) ([7]; 24 h p.i., IV): 0.0347 % ID/g; Pancreas uptake, Mean (% ID/g) ([7]; 48 h p.i., IV): 0.0275 % ID/g; Pancreas uptake, Mean (% ID/g) ([7]; 168 h p.i., IV): 0.0197 % ID/g; Skin uptake, Mean (% ID/g) ([7]; 4 h p.i., IV): 0.9769 % ID/g; Skin uptake, Mean (% ID/g) ([7]; 24 h p.i., IV): 0.1158 % ID/g; Skin uptake, Mean (% ID/g) ([7]; 48 h p.i., IV): 0.0906 % ID/g; Skin uptake, Mean (% ID/g) ([7]; 168 h p.i., IV): 0.0837 % ID/g; Small intestine uptake, Mean (% ID/g) ([7]; 4 h p.i., IV): 0.2091 % ID/g; Small intestine uptake, Mean (% ID/g) ([7]; 24 h p.i., IV): 0.0580 % ID/g; Small intestine uptake, Mean (% ID/g) ([7]; 48 h p.i., IV): 0.0499 % ID/g; Small intestine uptake, Mean (% ID/g) ([7]; 168 h p.i., IV): 0.0277 % ID/g; Spleen uptake, Mean (% ID/g) ([7]; 4 h p.i., IV): 0.2587 % ID/g; Spleen uptake, Mean (% ID/g) ([7]; 24 h p.i., IV): 0.1418 % ID/g; Spleen uptake, Mean (% ID/g) ([7]; 48 h p.i., IV): 0.1340 % ID/g; Spleen uptake, Mean (% ID/g) ([7]; 168 h p.i., IV): 0.1437 % ID/g; Stomach uptake, Mean (% ID/g) ([7]; 4 h p.i., IV): 0.1706 % ID/g; Stomach uptake, Mean (% ID/g) ([7]; 24 h p.i., IV): 0.0528 % ID/g; Stomach uptake, Mean (% ID/g) ([7]; 48 h p.i., IV): 0.0331 % ID/g; Stomach uptake, Mean (% ID/g) ([7]; 168 h p.i., IV): 0.0210 % ID/g; Tumor uptake, Mean (% ID/g) ([7]; 4 h p.i., IV): 33.0435 % ID/g; Tumor uptake, Mean (% ID/g) ([7]; 24 h p.i., IV): 12.9944 % ID/g; Tumor uptake, Mean (% ID/g) ([7]; 48 h p.i., IV): 7.6749 % ID/g; Tumor uptake, Mean (% ID/g) ([7]; 168 h p.i., IV): 3.9910 % ID/g; kidneys uptake ([7]; day 7 p.i., IV): 0.17 ± 0.02 % ID/g; localization in tumor and normal tissue ([7]; up to 168 h p.i.): high localization in tumor xenografts and low normal tissue uptake

For `C[C@@H](NC(=O)c1ccc(CNC(=O)CN2CCN3CCN4CCN(CC2)CC(=O)[O][Lu]([O]C(=O)C3)[O]C(=O)C4)cc1)C(=O)N1CCC[C@H]1B(O)O` [6555LU], which “degradation in aqueous solution” value [1] is on record?
The value was “did not observe any sign of degradation”.

What about the solubility in water [8] of the same compound?
The solubility in water was over 50 mg/mL.

What about the IC50 [2] of the same compound?
Its IC50 is over 100 µM.

What about the IC50 [4] of the same compound?
Its IC50 is 0.014 µM.

And the IC50 [5]?
The IC50 was 3.4 µM.

With `CSCC[C@H](NC(C)=O)C(=O)O` [N-Acetyl-L-methionine, N-acetyl-L-methionine] as the compound, how does the protection of bortezomib [9] read?
Its protection of bortezomib is “essentially complete protection”.
